Experimental data published in patent publication US8846628B2, “Oral formulations of cytidine analogs and methods of use thereof” (Celgene Corporation, priority 2008, dated 2014).
Entries after “also recorded” stand apart in the source; their conditions may differ.

How the values were obtained:
[1] = in vivo
[2] = clinical; details: human, in vivo
[3] = test system: patients with MDS or AML; details: in vivo
[4] = test system: patients with MDS or AML; assay: MTD study CL005: hematological response, IWG criteria; type: in vivo, human
From the text: Assessment of IWG criteria for certain patients in the MTD study is presented below in Table 10.

[5] = Rapid Aza Clinical Evaluation (RACE) study CL008: plasma PK; type: in vivo; details: human; for AUC(0-t) / AUC(0-inf): sc; for AUC(0-t): 75 mg/m^2, one subject (Formulation 4 cohort), SC 75 mg/m^2 (124 mg); for AUC(0-inf): SC 75 mg/m^2 (120 mg)
Protocol: Several oral formulations were evaluated in this study. A “3+7” cohort of patients was enrolled in the study, i.e., three patients were initially tested per formulation, and the cohorts could increase in size up to ten patients. Cohorts were enrolled in parallel.

Nc1ncn([C@@H]2O[C@H](CO)[C@@H](O)[C@H]2O)c(=O)n1 [azacitidine, 4-amino-1-β-D-ribofuranosyl-1,3,5-triazin-2(1H)-one]
dose proportionality of exposure [1]: did not result in dose-proportional increase in exposure | AUC ([2]; po, 180 mg): 330 ng·h/mL | bioavailability ([2]; po, 180 mg): 30% | AUC ([2]; sc, 75 mg/m2): 1000 ng·h/mL | AUC(0-inf) ([2]; sc, 75 mg/m2, AUC(0-inf)): 1210 ng·h/mL | AUC(0-t) ([2]; sc, 75 mg/m2, AUC(0-t)): 1140 ng·h/mL | Cmax ([2]; sc, 75 mg/m2, Cmax): 697 ng/mL | Tmax ([2]; sc, 75 mg/m2, Tmax): 0.51 h | half-life ([2]; sc, 75 mg/m2, t½): 1.73 h | dose limited toxicity (DLT) [3]: none of the patients have shown dose limited toxicity (DLT) | IWG Assessment ([4]; Patient 02004 (MDS), SC cycle 1, then oral 120 mg x7d Formulation #1 Cycles 2-6, 180 mg x7d Cycles 7-12): morphologic complete response (CR); also recorded: Per IWG 2006 criteria, the patient achieved complete response (CR); also recorded: achieved morphologic complete response per the IWG AML criteria; also recorded: with regard to the ANC condition for the IWG 2000 CR criteria, the patient did not meet the criteria for a complete response; also recorded: CR per IWG 2006 (Days 45-98); also recorded: Morphologic CR per the IWG AML criteria (Diagnosis is MDS) | IWG Assessment ([4]; Patient 02007 (CMML), Cohort 4, oral 240 mg Formulation #3 after SC cycle 1, per IWG 2000 criteria): HI-P major improvement per IWG 2000 (Days 35-202) | platelets versus baseline ([4]; Patient 02007, oral azacitidine starting with cycle 2 (Formulation #3, 240 mg)): increase in platelets above the baseline levels | IWG Assessment ([4]; Patient 02008 (MDS RAEB-1), Cohort 4, oral 240 mg Formulation #3 after SC cycle 1): HI-P major improvement per IWG 2000 (Days 34-110) | IWG Assessment ([4]; Patient 02009 (MDS RAEB-2), Cohort 4, oral 240 mg Formulation #3 after SC cycle 1): Marrow CR (Days 7-111+) per IWG 2006 | IWG Assessment ([4]; Patient 02011 (MDS RAEB-1), Cohort 5, oral 300 mg Formulation #3 after SC cycle 1, per IWG 2006 criteria): Marrow CR (Days 7-177+) per IWG 2006 | IWG Assessment ([4]; Patient 02011 (MDS RAEB-1), Cohort 5, oral 300 mg Formulation #3 after SC cycle 1, per revised IWG AML criteria): Morphologic CR per the revised IWG AML criteria on Day 21 | AUC ([5]; 75 mg/m^2, one subject (Formulation 6 cohort), following SC dosing, read-out: AUC (rounded)): ~1700 ng·h/mL | AUC(0-t) ([5]; day 1): 2390 ng·h/mL | AUC(0-t) ([5]; day 15): 2440 ng·h/mL | AUC(0-inf) ([5]; 75 mg/m^2, one subject (Formulation 6 cohort), day 1): 1720 ng·h/mL | AUC(0-inf) ([5]; 75 mg/m^2, one subject (Formulation 6 cohort), day 15): 1640 ng·h/mL
